Source: US20240123022A1, “A STABLE ANTI-ANGIOGENIC AND ANTI-INFLAMMATORY PHARMACEUTICAL FORMULATION AND PHARMACEUTICAL COMBINATION FOR TREATMENT AND PREVENTION OF PSORIASIS” (priority 2021, published 2024)
Like-named read-outs stand apart in the source and are kept apart here.

Legend:
Caspase 3 = test: Caspase-3 activation assay in HaCaT cells; format: cell-based, human; details: 100 to 5000 μg/mL, 24 h and 48 h, vs untreated cells
From the text: The study aimed to determine action of IS217 on the death mediator Caspase 3 which acts as dominant regulator during cell death induction. HaCaT cells were used as test system and in house validation assay was done by using Anthralin dissolved in DMSO (positive control).

HaCaT cells = test: TUNEL assay; format: cell-based, human; details: for % increase in TUNEL-Positive cell population w.r.t. control (untreated cells): 48 h
Method: Terminal deoxynucleotidyl transferase (TdT) dUTP Nick-End Labeling (TUNEL) assay has been designed to detect apoptotic cells that undergo extensive DNA degradation during the late stages of apoptosis. […] Cells were treated with test item (IS217 of 100 μg/ml-5000 μg/ml) and positive controls like curcumin (10 μM and 20 μM), anthralin (1 μM) and betullininc acid (10 μg/ml, 20 μg/ml, 50 μg/ml). After about 48 hours of treatment, cells were analysed for the apoptotic effect via TUNEL assay. Absorbance was measured using ELISA reader (Table 1).

[1] = tested on: Human endothelial cells (EA.hy.926); test: Tube formation assay in EA.hy.926 cells; format: cell-based
Method: This assay was performed to determine ability of various compounds to promote or inhibit tube formation. Compounds that are able to inhibit tube formation could be useful in various diseases, such as cancer, where tumors stimulate new blood vessel formation to receive oxygen and nutrients in order to grow beyond a relatively small size.
Human endothelial cells (EA.hy.926) grown in DMEM and about 10% FBS were used as test system to determine angiogenic effect of IS217 by assessing inhibitory effects of test item on endothelial cells tube formation.
Prior to the tube formation assay, test item of concentration ranging 1 μg/ml, 10 μg/ml, 100 μg/ml, 500 μg/ml and 1000 μg/ml were used to treat endothelial cells for its cytotoxicity effect to assess suitable concentration for tube formation assay. The cells corresponding to positive control group were treated with paclitaxel. Anthralin was also used as positive control for in house validation.
After about 24 hours of incubation in CO2 incubator, 20 μl of 5 mg/ml of MTT was added to identify percentage cytotoxicty by biotek synergy HT plate reader. After that cells were processed for tube formation assay with selected concentrations of TI. The degree of angiogenesis progression was assessed based on visual pattern recognition of photomicrographs of EA.hy.926 cells.

HUVEC cells = format: cell-based, human; details: 100-1000 μg/ml
Method: The study was performed to determine anti-angiogenic effect of IS217 in HUVEC cell line by assessing anti-proliferative effects of test item. Here XTT assay was used to determine the cell viability in test cells. HUVEC cells were treated with the test item IS217 (100-1000 μg/ml) and bevacizumab (1 mg/ml) concentrations was used as positive controls.

[2] = Pre-formulation stability and maximum feasible concentration; format: physicochemical
Method: This study is important in CMC preparation of any drug. The study was conducted to develop suitable pre-formulations of IS217 for four administration routes selected for in vivo studies and to determine maximum concentration of IS217 peptide which is feasible in these pre-formulation i.e., maximum feasible concentration (MFC). Four different aqueous based pre-formulations of IS217 like 10% v/v Tween 20, 20% v/v glycerol, 10% PG v/v in 0.9% NaCl solution and 0.9% NaCl alone were prepared and were first subjected to stability study at intended use of temperature (RT) for about 24 hours. HPLC based assay method was used to evaluate the stability.
Out of these, four aqueous based pre-formulation, 0.9% NaCl solution was selected for intravenous (IV) and intraperitoneal (IP) route and also the aqueous vehicle for co-solvent pre-formulation, based on its stability and suitability at physiological conditions. For subcutaneous (SC)/intramuscular route (IM), a co-solvent-based pre-formulation was developed. 10% propylene glycol (PG) in 0.9% NaCl solution was selected as pre-formulation for SC/IM. Maximum feasible concentration of IS217 in both the pre-formulations was greater than 50 mg/ml.

[3] = tested on: IMQ induced psoriasis model using Balb/c mice; format: in vivo
Method: The experimental procedure and doses and route of administration are same as IMQ model. Test item IS217 was administered subcutaneously to diseased animals at different dose levels of 0.15 mg/kg, 0.30 mg/kg, 0.60 mg/kg, 1.2 mg/kg, 2.4 mg/kg and 4.8 mg/kg.

[4] = tested on: TPA induced ear inflammation model in C57BL/6 mice; format: in vivo
From the text: The experimental procedure and doses and route of administration are same as IMQ model.

[5] = tested on: TPA induced ear inflammation model in C57BL/6 mice; test: IS217 alone and in combination with methotrexate and betamethasone in TPA induced ear inflammation model; format: in vivo
Method: The experimental procedure, doses and route of administration were same as IMQ model. Test item IS217 was administered subcutaneously either alone or in combination with standard methotrexate (MTX) and betamethasone (BD) to diseased animals.

[6] = IS217 SC 1.2 mg/kg q.d., 10 days

H-FAKKFAKKFK-OH [IS217, H-Phe-Ala-Lys-Lys-Phe-Ala-Lys-Lys-Phe-Lys-OH]
activation of Caspase 3 (Caspase 3): did not lead to activation | % increase in TUNEL-Positive cell population w.r.t. control (untreated cells) (HaCaT cells; 500 μg/ml): −25.0% | % increase in TUNEL-Positive cell population w.r.t. control (untreated cells) (HaCaT cells; 1000 μg/ml): −20.4% | % increase in TUNEL-Positive cell population w.r.t. control (untreated cells) (HaCaT cells; 2000 μg/ml): −25.4% | % increase in TUNEL-Positive cell population w.r.t. control (untreated cells) (HaCaT cells; 5000 μg/ml): −40.7% | increase in apoptotic cells (TUNEL positive population) (HaCaT cells; tested concentration range 100-5000 μg/ml, vs untreated): No increase | inhibition of endothelial morphogenesis on matrigel ([1]; Ea.hy.926, 500 μg/ml): Complete inhibition | endothelial tube formation ([1]; Ea.hy.926, all test concentrations 1 μg/ml to 1000 μg/ml): block endothelial tube formation | percentage inhibition of FBS induced proliferation of HUVEC cells (HUVEC cells): effective upto 1000 μg/ml only | Maximum feasible concentration ([2]; 0.9% NaCl solution (IV, IP pre-formulation)): greater than 50 mg/ml | Maximum feasible concentration ([2]; 10% propylene glycol in 0.9% NaCl solution (SC/IM pre-formulation)): greater than 50 mg/ml | physical appearance of pre-formulations ([2]; four aqueous pre-formulations, RT, 24 hours): no visual changes | inhibition of ear thickness ([3]; 0.3 mg/kg SC): 36.34% | psoriatic score PASI and ear punch biopsy ([3]; IS217 SC 0.15-4.8 mg/kg q.d., 8 days): lowering of | TNF-α level ([3]; SC 0.15-4.8 mg/kg): no trend | ear thickness (life phase), punch biopsy, cumulative psoriatic scoring and spleen weight ([3]; dose level of 0.3 mg/kg SC): maximum effect | Ear homogenate TNF-α, IL-23, MPO ([3]; p < 0.01): MPO reduction | reduction in IL-23 levels in ear tissue homogenate ([4]; 0.60 mg/kg): 42.12% | maximum ear thickness inhibition ([4]; 1.2 mg/kg): 80.36% | MPO levels ([4]; 1.2 mg/kg SC, conclusion of in vivo studies, model not stated): significant reduction | absolute ear thickness ([4]; 1.2 mg/kg-4.8 mg/kg): significant reduction | ear thickness (absolute, histopathology, ear punch biopsy) ([4]; IS217 (all doses) < MTX, p < 0.001): Decreased ear | Ear homogenate ELISA TNF-α, IL-23, IL-6, MPO ([4]; p < 0.01): MPO reduction | ear thickness (absolute, histopathology, ear punch biopsy) ([5]; IS217 (1.2 mg/kg) < MTX (1.5 mg/kg), p < 0.01): Decreased ear | edema and hyperkeratosis [5, 6]: IS217 decreased | inflammatory cytokines in ear homogenate (ELISA and histopathology score) IL-23, IL-6, TNF-α and MPO [5, 6]: IS217 decreased | inhibitory activity against TPA induced increase in ear thickness ([5]; IS217 alone (SC 1.2 mg/kg q.d. per Table 6)): 44.77% | effect in combination with MTX ([5]; TPA model combination study): good effect | absolute ear thickness ([5]; alone as well as in combination with standard drugs): significant reduction | inhibition of healthy unstimulated cells (CC50 experiment) (HUVEC): no inhibition | inhibition of VEGF stimulated HUVEC cells (HUVEC; VEGF stimulated): dose dependent inhibition
